Measurements from ChEMBL document CHEMBL1139232, “Isothiazoloquinolones with enhanced antistaphylococcal activities against multidrug-resistant strains: effects of structural modifications at the 6-, 7-, and 8-positions” (J Med Chem, 2007).
Values after ≈ are worked out from the molar mass of the structure shown.

Experiments:
Staphylococcus aureus [1] = assay: Antibacterial activity against vancomycin-sensitive Staphylococcus aureus F988633; assay type: functional
Staphylococcus aureus [2] = assay: Antibacterial activity against methicillin-resistant Staphylococcus aureus; assay type: functional
Staphylococcus aureus [3] = assay: Antibacterial activity against Staphylococcus aureus ATCC 33591 infected in CD1 mouse at 20 mg/kg, sc; assay type: functional; conditions: route subcutaneous
Staphylococcus aureus [4] = assay: Antibacterial activity against fluoroquinolone-resistant Staphylococcus aureus 273/T/T/T; assay type: functional
Staphylococcus aureus [5] = assay: Antibacterial activity against vancomycin intermediate-resistant Staphylococcus aureus F988653; assay type: functional
Staphylococcus aureus [6] = assay: Antibacterial activity against vancomycin intermediate-resistant Staphylococcus aureus F988647; assay type: functional
Hepatocyte = assay: Cytotoxicity against rat hepatocytes after 48 hrs; assay type: functional
Staphylococcus aureus [7] = assay: Antibacterial activity against methicillin-sensitive Staphylococcus aureus; assay type: functional
[8] = Cytotoxicity against human HepG2 cells after 72 hrs; assay type: cell-based
[9] = target: DNA topoisomerase 2-alpha (Homo sapiens) (UniProt P11388)
Description: Inhibition of human topoisomerase 2 by DNA cleavage assay

Staphylococcus aureus [10] = assay: Antibacterial activity against Staphylococcus aureus; assay type: functional
[11] = Cytotoxicity against human Hep2 cell line after 72 hrs; assay type: cell-based, HEp-2; conditions: Hep2 cells
Staphylococcus aureus [12] = assay: Antibacterial activity against vancomycin intermediate-resistant Staphylococcus aureus F988650; assay type: functional
DNA gyrase = DNA gyrase (Staphylococcus aureus, UniProt P0A0K8+P20831); assay: Inhibition of Staphylococcus aureus DNA gyrase by supercoiling assay; assay type: protein-complex assay
Staphylococcus aureus [13] = assay: Antibacterial activity against vancomycin intermediate-resistant Staphylococcus aureus F988644; assay type: functional
Staphylococcus aureus [14] = assay: Antibacterial activity against vancomycin-resistant Staphylococcus aureus F800236; assay type: functional
Staphylococcus aureus [15] = assay: Antibacterial activity against vancomycin intermediate-resistant Staphylococcus aureus F977215; assay type: functional
Staphylococcus aureus [16] = assay: Antibacterial activity against vancomycin intermediate-resistant Staphylococcus aureus F977210; assay type: functional
[17] = Inhibition of Staphylococcus aureus topoisomerase 4 by decatenation assay
Staphylococcus aureus [18] = assay: Antibacterial activity against vancomycin-resistant Staphylococcus aureus F800238; assay type: functional
Staphylococcus aureus [19] = assay: Antibacterial activity against vancomycin intermediate-resistant Staphylococcus aureus F977218; assay type: functional
Staphylococcus aureus [20] = assay: Antibacterial activity against Staphylococcus aureus ATCC 33591 infected in CD1 mouse at 10 mg/kg, sc; assay type: functional; conditions: route subcutaneous

Chain of DNA gyrase (P0A0K8 whole entry): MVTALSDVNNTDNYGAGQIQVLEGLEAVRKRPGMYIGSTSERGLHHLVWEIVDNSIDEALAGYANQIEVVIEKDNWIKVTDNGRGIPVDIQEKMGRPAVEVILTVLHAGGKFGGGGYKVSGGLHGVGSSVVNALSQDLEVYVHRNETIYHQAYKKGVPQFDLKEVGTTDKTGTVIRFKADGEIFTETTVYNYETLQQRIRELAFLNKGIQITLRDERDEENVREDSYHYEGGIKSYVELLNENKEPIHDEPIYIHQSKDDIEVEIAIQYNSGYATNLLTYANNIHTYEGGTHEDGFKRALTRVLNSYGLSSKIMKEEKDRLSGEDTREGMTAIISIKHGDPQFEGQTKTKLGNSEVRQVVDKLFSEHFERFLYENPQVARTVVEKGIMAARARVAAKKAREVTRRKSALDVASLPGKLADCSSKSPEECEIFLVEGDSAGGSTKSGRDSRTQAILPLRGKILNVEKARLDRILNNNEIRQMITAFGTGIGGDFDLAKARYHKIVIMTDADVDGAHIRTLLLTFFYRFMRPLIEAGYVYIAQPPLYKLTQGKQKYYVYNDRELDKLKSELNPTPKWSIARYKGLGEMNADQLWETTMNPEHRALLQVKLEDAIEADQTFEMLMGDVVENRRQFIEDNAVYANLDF
Chain of DNA gyrase (P20831 whole entry): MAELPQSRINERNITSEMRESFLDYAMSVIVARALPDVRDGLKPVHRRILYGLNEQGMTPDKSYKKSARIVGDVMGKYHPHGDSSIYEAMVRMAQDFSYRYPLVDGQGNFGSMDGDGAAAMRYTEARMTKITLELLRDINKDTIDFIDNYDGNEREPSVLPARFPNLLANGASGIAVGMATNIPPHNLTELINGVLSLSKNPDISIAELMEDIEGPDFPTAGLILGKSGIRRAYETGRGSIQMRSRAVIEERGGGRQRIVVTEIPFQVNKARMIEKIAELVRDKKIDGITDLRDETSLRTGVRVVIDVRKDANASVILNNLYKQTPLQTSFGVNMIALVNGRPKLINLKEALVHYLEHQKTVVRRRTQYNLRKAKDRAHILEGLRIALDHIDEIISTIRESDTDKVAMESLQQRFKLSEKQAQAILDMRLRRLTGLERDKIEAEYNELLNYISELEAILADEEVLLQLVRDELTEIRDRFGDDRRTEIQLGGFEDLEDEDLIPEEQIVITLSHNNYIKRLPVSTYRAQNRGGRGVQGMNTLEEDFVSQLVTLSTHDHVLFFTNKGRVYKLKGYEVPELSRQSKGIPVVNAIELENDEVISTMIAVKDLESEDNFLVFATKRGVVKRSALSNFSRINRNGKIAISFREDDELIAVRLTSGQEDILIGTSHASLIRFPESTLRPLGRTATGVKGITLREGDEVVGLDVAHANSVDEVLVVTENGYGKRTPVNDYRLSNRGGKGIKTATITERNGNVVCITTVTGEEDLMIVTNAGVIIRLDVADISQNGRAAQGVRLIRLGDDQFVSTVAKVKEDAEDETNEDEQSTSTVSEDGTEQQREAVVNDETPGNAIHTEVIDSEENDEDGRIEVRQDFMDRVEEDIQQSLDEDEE
Chain of DNA topoisomerase 2-alpha (Homo sapiens) (P11388 whole entry): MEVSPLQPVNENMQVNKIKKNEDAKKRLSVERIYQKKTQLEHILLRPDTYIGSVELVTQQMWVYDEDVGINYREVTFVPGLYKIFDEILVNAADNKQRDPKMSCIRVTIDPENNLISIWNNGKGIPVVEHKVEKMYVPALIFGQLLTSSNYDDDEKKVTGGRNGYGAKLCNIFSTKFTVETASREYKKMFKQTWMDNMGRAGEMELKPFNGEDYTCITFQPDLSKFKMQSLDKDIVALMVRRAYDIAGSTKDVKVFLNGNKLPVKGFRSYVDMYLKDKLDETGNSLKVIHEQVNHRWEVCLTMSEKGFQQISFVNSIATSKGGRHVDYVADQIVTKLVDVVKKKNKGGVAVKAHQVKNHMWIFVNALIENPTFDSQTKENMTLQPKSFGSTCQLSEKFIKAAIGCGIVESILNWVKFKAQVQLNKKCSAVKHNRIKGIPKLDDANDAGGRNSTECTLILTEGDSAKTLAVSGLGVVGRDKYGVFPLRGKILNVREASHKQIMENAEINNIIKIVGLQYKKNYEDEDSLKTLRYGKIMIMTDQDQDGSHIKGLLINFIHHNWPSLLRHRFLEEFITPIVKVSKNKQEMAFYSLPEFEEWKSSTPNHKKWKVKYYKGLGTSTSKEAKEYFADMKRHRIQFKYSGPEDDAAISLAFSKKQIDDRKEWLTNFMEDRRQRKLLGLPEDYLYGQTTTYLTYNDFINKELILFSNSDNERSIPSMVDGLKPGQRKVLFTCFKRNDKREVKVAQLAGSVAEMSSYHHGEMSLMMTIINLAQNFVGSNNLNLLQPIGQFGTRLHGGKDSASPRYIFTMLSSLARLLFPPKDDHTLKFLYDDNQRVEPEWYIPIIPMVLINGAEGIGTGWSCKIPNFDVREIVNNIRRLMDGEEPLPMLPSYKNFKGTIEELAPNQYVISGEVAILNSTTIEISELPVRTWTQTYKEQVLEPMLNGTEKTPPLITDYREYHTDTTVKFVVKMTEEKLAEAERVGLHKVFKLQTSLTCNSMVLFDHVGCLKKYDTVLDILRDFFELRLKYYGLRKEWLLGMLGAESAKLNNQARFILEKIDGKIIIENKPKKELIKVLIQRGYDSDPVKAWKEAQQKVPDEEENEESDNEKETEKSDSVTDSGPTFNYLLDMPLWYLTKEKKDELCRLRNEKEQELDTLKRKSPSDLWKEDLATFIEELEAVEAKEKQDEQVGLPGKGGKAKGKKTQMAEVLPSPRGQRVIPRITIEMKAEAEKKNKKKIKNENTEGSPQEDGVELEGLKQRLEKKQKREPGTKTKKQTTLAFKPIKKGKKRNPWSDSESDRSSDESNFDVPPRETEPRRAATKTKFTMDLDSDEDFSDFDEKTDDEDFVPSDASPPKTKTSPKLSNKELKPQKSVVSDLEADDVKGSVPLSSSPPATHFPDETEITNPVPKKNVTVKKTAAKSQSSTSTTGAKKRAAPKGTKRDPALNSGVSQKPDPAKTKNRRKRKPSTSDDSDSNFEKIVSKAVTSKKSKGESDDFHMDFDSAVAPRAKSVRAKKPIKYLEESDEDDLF

Compound: COc1c(-c2ccnc(C)c2)c(F)cc2c(=O)c3c(=O)[nH]sc3n(C3CC3)c12
- MIC (Staphylococcus aureus [1]): 0.25 µg/mL (≈ 0.629 µM)
- MIC50 (Staphylococcus aureus [2]): 0.25 µg/mL (≈ 0.629 µM)
- MIC90 (Staphylococcus aureus [2]): 0.5 µg/mL (≈ 1.26 µM)
- Log10 cfu (Staphylococcus aureus [3]): 0.66
- MIC (Staphylococcus aureus [4]): 0.25 µg/mL (≈ 0.629 µM)
- MIC (Staphylococcus aureus [5]): 0.25 µg/mL (≈ 0.629 µM)
- MIC (Staphylococcus aureus [6]): 0.25 µg/mL (≈ 0.629 µM)
- CC50 (Hepatocyte): > 100 µM
- MIC (Staphylococcus aureus [7]): 0.002 µg/mL (≈ 0.00503 µM)
- CC50 at 72 h [8]: > 100 µM
- EC2 [9]: 100 µM
- MIC50 (Staphylococcus aureus [10]): 0.25 µg/mL (≈ 0.629 µM)
- MIC90 (Staphylococcus aureus [10]): 0.5 µg/mL (≈ 1.26 µM)
- CC50 at 72 h [11]: > 100 µM
- MIC (Staphylococcus aureus [12]): 0.5 µg/mL (≈ 1.26 µM)
- IC50 (DNA gyrase): 1.6 µM
- MIC (Staphylococcus aureus [13]): 0.25 µg/mL (≈ 0.629 µM)
- MIC (Staphylococcus aureus [14]): 0.25 µg/mL (≈ 0.629 µM)
- MIC (Staphylococcus aureus [15]): 0.25 µg/mL (≈ 0.629 µM)
- MIC (Staphylococcus aureus [16]): 0.12 µg/mL (≈ 0.302 µM)
- IC50 [17]: 0.7 µM
- MIC (Staphylococcus aureus [18]): 0.12 µg/mL (≈ 0.302 µM)
- MIC (Staphylococcus aureus [19]): 0.25 µg/mL (≈ 0.629 µM)

Compound: CC(=O)NC[C@H]1CN(c2ccc(N3CCOCC3)c(F)c2)C(=O)O1 [LINEZOLID]
- MIC (Staphylococcus aureus [1]): > 16 µg/mL
- MIC50 (Staphylococcus aureus [2]): 2 µg/mL (≈ 5.93 µM)
- MIC90 (Staphylococcus aureus [2]): 2 µg/mL (≈ 5.93 µM)
- Log10 cfu (Staphylococcus aureus [3]): 0.2
- MIC50 (Staphylococcus aureus [10]): 2 µg/mL (≈ 5.93 µM)
- MIC90 (Staphylococcus aureus [10]): 2 µg/mL (≈ 5.93 µM)

Compound: C[C@H]1NCc2cc(-c3cc4c(cc3F)c(=O)c3c(=O)[nH]sc3n4C3CC3)ccc21
- MIC (Staphylococcus aureus [2]): 1 µg/mL (≈ 2.45 µM)
- CC50 at 72 h [11]: 2 µM

Compound: COc1c(-c2ccc3c(c2)CCN(C)C3)c(F)cc2c(=O)c3c(=O)[nH]sc3n(C3CC3)c12
- MIC (Staphylococcus aureus [2]): 4 µg/mL (≈ 8.86 µM)
- CC50 at 72 h [11]: 61 µM

Compound: CN[C@H](CC(C)C)C(=O)N[C@H]1C(=O)N[C@@H](CC(N)=O)C(=O)N[C@H]2C(=O)N[C@H]3C(=O)N[C@H](C(=O)N[C@H](C(=O)O)c4cc(O)cc(O)c4-c4cc3ccc4O)[C@H](O)c3ccc(c(Cl)c3)Oc3cc2cc(c3O[C@@H]2O[C@H](CO)[C@@H](O)[C@H](O)[C@H]2O[C@H]2C[C@](C)(N)[C@H](O)[C@H](C)O2)Oc2ccc(cc2Cl)[C@H]1O [VANCOMYCIN]
- MIC50 (Staphylococcus aureus [2]): 1 µg/mL (≈ 0.69 µM)
- MIC90 (Staphylococcus aureus [2]): 8 µg/mL (≈ 5.52 µM)
- MIC (Staphylococcus aureus [5]): 8 µg/mL (≈ 5.52 µM)
- MIC (Staphylococcus aureus [6]): 8 µg/mL (≈ 5.52 µM)
- MIC50 (Staphylococcus aureus [10]): 1 µg/mL (≈ 0.69 µM)
- MIC90 (Staphylococcus aureus [10]): 8 µg/mL (≈ 5.52 µM)
- MIC (Staphylococcus aureus [12]): 8 µg/mL (≈ 5.52 µM)
- MIC (Staphylococcus aureus [13]): 8 µg/mL (≈ 5.52 µM)
- Log10 cfu (Staphylococcus aureus [20]): 0.31
- MIC (Staphylococcus aureus [14]): > 32 µg/mL
- MIC (Staphylococcus aureus [15]): 8 µg/mL (≈ 5.52 µM)
- MIC (Staphylococcus aureus [16]): 8 µg/mL (≈ 5.52 µM)
- MIC (Staphylococcus aureus [18]): > 32 µg/mL
- MIC (Staphylococcus aureus [19]): 8 µg/mL (≈ 5.52 µM)

Compound: COc1c(-c2ccc3c(c2)CN[C@@H]3C)c(F)cc2c(=O)c3c(=O)[nH]sc3n(C3CC3)c12
- MIC50 (Staphylococcus aureus [2]): 1 µg/mL (≈ 2.29 µM)
- MIC90 (Staphylococcus aureus [2]): 2 µg/mL (≈ 4.57 µM)
- MIC (Staphylococcus aureus [4]): 0.5 µg/mL (≈ 1.14 µM)
- CC50 (Hepatocyte): 77 µM
- MIC (Staphylococcus aureus [7]): 0.008 µg/mL (≈ 0.0183 µM)
- CC50 at 72 h [8]: 14 µM
- EC2 [9]: 35 µM
- MIC50 (Staphylococcus aureus [10]): 0.5 µg/mL (≈ 1.14 µM)
- MIC90 (Staphylococcus aureus [10]): 2 µg/mL (≈ 4.57 µM)
- CC50 at 72 h [11]: 14 µM
- IC50 (DNA gyrase): 2.1 µM
- IC50 [17]: 0.2 µM

Compound: COc1c(-c2ccc3c(c2)CCNC3)c(F)cc2c(=O)c3c(=O)[nH]sc3n(C3CC3)c12
- MIC (Staphylococcus aureus [2]): 2 µg/mL (≈ 4.57 µM)
- CC50 at 72 h [11]: 57 µM

Compound: COc1c(-c2ccc3c(c2)CNC3)c(F)cc2c(=O)c3c(=O)[nH]sc3n(C3CC3)c12
- MIC (Staphylococcus aureus [2]): 0.5 µg/mL (≈ 1.18 µM)
- MIC50 (Staphylococcus aureus [2]): 0.5 µg/mL (≈ 1.18 µM)
- MIC90 (Staphylococcus aureus [2]): 2 µg/mL (≈ 4.72 µM)
- MIC (Staphylococcus aureus [4]): 0.5 µg/mL (≈ 1.18 µM)
- CC50 (Hepatocyte): 75 µM
- MIC (Staphylococcus aureus [7]): 0.008 µg/mL (≈ 0.0189 µM)
- CC50 at 72 h [8]: 35 µM
- EC2 [9]: 75 µM
- MIC50 (Staphylococcus aureus [10]): 0.5 µg/mL (≈ 1.18 µM)
- MIC90 (Staphylococcus aureus [10]): 1 µg/mL (≈ 2.36 µM)
- CC50 at 72 h [11]: 19 µM
- IC50 (DNA gyrase): 2 µM
- IC50 [17]: 0.1 µM

Compound: COc1c(-c2ccc3cnccc3c2)ccc2c(=O)c3c(=O)[nH]sc3n(C3CC3)c12
- MIC (Staphylococcus aureus [2]): 0.12 µg/mL (≈ 0.289 µM)
- CC50 at 72 h [11]: 45 µM

Compound: COc1c(-c2cc(C)nc(C)c2)ccc2c(=O)c3c(=O)[nH]sc3n(C3CC3)c12
- MIC (Staphylococcus aureus [2]): 1 µg/mL (≈ 2.54 µM)
- CC50 at 72 h [11]: > 100 µM

Compound: COc1c(-c2ccncc2)c(F)cc2c(=O)c3c(=O)[nH]sc3n(C3CC3)c12
- MIC (Staphylococcus aureus [2]): 1 µg/mL (≈ 2.61 µM)
- CC50 at 72 h [11]: > 100 µM

Compound: O=c1[nH]sc2c1c(=O)c1cc(F)c(-c3ccncc3)nc1n2C1CC1
- MIC (Staphylococcus aureus [2]): 2 µg/mL (≈ 5.64 µM)
- CC50 at 72 h [11]: > 100 µM

Compound: COc1c(-c2ccc3c(c2)CNC3)ccc2c(=O)c3c(=O)[nH]sc3n(C3CC3)c12
- MIC (Staphylococcus aureus [2]): 2 µg/mL (≈ 4.93 µM)
- CC50 at 72 h [11]: 97 µM

Compound: COc1c(-c2ccncc2)ccc2c(=O)c3c(=O)[nH]sc3n(C3CC3)c12
- MIC (Staphylococcus aureus [2]): 0.5 µg/mL (≈ 1.37 µM)
- CC50 at 72 h [11]: > 100 µM
